Source: ChEMBL document CHEMBL5365556 (ACS Med Chem Lett, 2023)

Tested on: THP-1
Experiment: Cytotoxicity against human THP-1 cells assessed as reduction in cell viability measured after 24 hrs by Celltiter-Glo assay
Assay type: functional, cell-based
Conditions: THP-1, 24 h

Compound: CCN(CC)C(=S)SSC(=S)N(CC)CC
- IC50: 7 µM
